Data taken from ChEMBL document CHEMBL1201862, “PubChem BioAssay data set” (2004).
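Following 48 hours of exposure in 96-well plates, responses at five concentrations were used to interpolate endpoints linearly. GI50 = concentration required for 50% inhibition of growth.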 Activity calls are given as the source filed them. Rule as the data show it: active = GI50 up to about 1.1 µM and inactive = higher.

How the values were obtained:
Assay in all cases: DTP human tumour cell line panel, 48 h
[1] = system: TK-10
[2] = system: MOLT-4
[3] = system: Hs-578T
[4] = system: PC-3
[5] = system: OVCAR-3
[6] = system: SF-295
[7] = system: HOP-62
[8] = system: NCI-H460
[9] = system: SN12C
[10] = system: HT-29
[11] = system: HOP-92
[12] = system: KM12
[13] = system: OVCAR-5
[14] = system: SW-620
[15] = system: OVCAR-8
[16] = system: NCI/ADR-RES
[17] = system: U-251
[18] = system: A549
[19] = system: HCT-116
[20] = system: HCT-15
[21] = system: MDA-MB-435
[22] = system: SK-MEL-5
[23] = system: RPMI-8226
[24] = system: RXF 393
[25] = system: CAKI-1
[26] = system: T47D
[27] = system: UACC-257
[28] = system: M14
[29] = system: NCI-H226
[30] = system: SK-MEL-2
[31] = system: DU-145
[32] = system: SNB-75
[33] = system: ACHN
[34] = system: SR
[35] = system: LOX IMVI
[36] = system: UO-31
[37] = system: A498
[38] = system: SK-MEL-28
[39] = system: Malme-3M
[40] = system: SF-268
[41] = system: IGROV-1
[42] = system: 786-0
[43] = system: SF-539
[44] = system: HL-60
[45] = system: K562
[46] = system: SK-OV-3
[47] = system: MDA-MB-231
[48] = system: HCC 2998
[49] = system: MDA-N
[50] = system: CCRF-CEM
[51] = system: SNB-19
[52] = system: NCI-H23
[53] = system: MCF7
[54] = system: NCI-H522
[55] = system: EKVX
[56] = system: COLO 205
[57] = system: OVCAR-4
[58] = system: UACC-62

SMILES: CCc1cc2c(c3c1CCCC3=O)CC1(C2)Cc2cc(CC)c3c(c2C1)C(=O)CCC3
- GI50 [1]: > 100 µM (inactive)
- GI50 [2]: 35.2 µM (inactive)
- GI50 [3]: > 100 µM (inactive)
- GI50 [4]: 46.5 µM (inactive)
- GI50 [5]: 86.3 µM (inactive)
- GI50 [6]: > 100 µM (inactive)
- GI50 [7]: > 100 µM (inactive)
- GI50 [8]: 93.8 µM (inactive)
- GI50 [9]: > 100 µM (inactive)
- GI50 [10]: 76.2 µM (inactive)
- GI50 [11]: 57.9 µM (inactive)
- GI50 [12]: 47.2 µM (inactive)
- GI50 [13]: > 100 µM (inactive)
- GI50 [14]: > 100 µM (inactive)
- GI50 [15]: > 100 µM (inactive)
- GI50 [16]: > 100 µM (inactive)
- GI50 [17]: 87.5 µM (inactive)
- GI50 [18]: > 100 µM (inactive)
- GI50 [19]: 61.1 µM (inactive)
- GI50 [20]: > 100 µM
- GI50 [21]: 47.2 µM (inactive)
- GI50 [22]: 54.3 µM (inactive)
- GI50 [23]: 46.9 µM (inactive)
- GI50 [24]: > 100 µM (inactive)
- GI50 [25]: 89.5 µM (inactive)
- GI50 [26]: > 100 µM (inactive)
- GI50 [27]: 57.4 µM (inactive)
- GI50 [28]: > 100 µM (inactive)
- GI50 [29]: > 100 µM (inactive)
- GI50 [30]: > 100 µM (inactive)
- GI50 [31]: > 100 µM (inactive)
- GI50 [32]: 30.5 µM (inactive)
- GI50 [33]: 66.4 µM (inactive)
- GI50 [34]: 24.1 µM (inactive)
- GI50 [35]: > 100 µM (inactive)
- GI50 [36]: > 100 µM (inactive)
- GI50 [37]: > 100 µM (inactive)
- GI50 [38]: > 100 µM (inactive)
- GI50 [39]: 25.3 µM (inactive)
- GI50 [40]: > 100 µM (inactive)
- GI50 [41]: > 100 µM (inactive)
- GI50 [42]: > 100 µM (inactive)
- GI50 [43]: > 100 µM (inactive)
- GI50 [44]: 61 µM (inactive)
- GI50 [45]: 65.9 µM (inactive)
- GI50 [46]: > 100 µM (inactive)
- GI50 [47]: 36.5 µM (inactive)
- GI50 [48]: > 100 µM (inactive)
- GI50 [49]: > 100 µM (inactive)
- GI50 [50]: 26.7 µM (inactive)
- GI50 [51]: > 100 µM (inactive)
- GI50 [52]: > 100 µM (inactive)
- GI50 [53]: > 100 µM (inactive)
- GI50 [54]: 62.8 µM (inactive)
- GI50 [55]: > 100 µM (inactive)
- GI50 [56]: > 100 µM (inactive)
- GI50 [57]: 73.6 µM (inactive)

SMILES: C(#C[C@@]12CCC[C@@H]1NCO2)c1ccc2c(c1)OCO2
- GI50 [1]: 73.3 µM (inactive)
- GI50 [2]: 22.2 µM (inactive)
- GI50 [3]: 37.8 µM (inactive)
- GI50 [4]: 55.8 µM (inactive)
- GI50 [5]: 65.6 µM (inactive)
- GI50 [6]: 50.6 µM (inactive)
- GI50 [7]: 87.3 µM (inactive)
- GI50 [8]: 50.9 µM (inactive)
- GI50 [10]: 32.2 µM (inactive)
- GI50 [11]: 35 µM (inactive)
- GI50 [12]: 69.7 µM (inactive)
- GI50 [13]: > 100 µM (inactive)
- GI50 [14]: 81.3 µM (inactive)
- GI50 [15]: 60.8 µM (inactive)
- GI50 [16]: 37.5 µM (inactive)
- GI50 [17]: 70.5 µM (inactive)
- GI50 [18]: > 100 µM (inactive)
- GI50 [20]: 54.8 µM
- GI50 [21]: 61.1 µM (inactive)
- GI50 [22]: 33.3 µM (inactive)
- GI50 [23]: 36.6 µM (inactive)
- GI50 [24]: 49.3 µM (inactive)
- GI50 [25]: 67.1 µM (inactive)
- GI50 [26]: 58.2 µM (inactive)
- GI50 [27]: 44.2 µM (inactive)
- GI50 [28]: 24.7 µM (inactive)
- GI50 [29]: > 100 µM (inactive)
- GI50 [30]: > 100 µM (inactive)
- GI50 [31]: > 100 µM (inactive)
- GI50 [32]: 45.1 µM (inactive)
- GI50 [33]: 65 µM (inactive)
- GI50 [34]: 36.8 µM (inactive)
- GI50 [35]: 46.6 µM (inactive)
- GI50 [36]: 30.3 µM (inactive)
- GI50 [37]: > 100 µM (inactive)
- GI50 [38]: 35.6 µM (inactive)
- GI50 [39]: 28.1 µM (inactive)
- GI50 [40]: 65.2 µM (inactive)
- GI50 [41]: 45.9 µM (inactive)
- GI50 [42]: 43.7 µM (inactive)
- GI50 [43]: 29.3 µM (inactive)
- GI50 [44]: 24 µM (inactive)
- GI50 [45]: 21.9 µM (inactive)
- GI50 [46]: > 100 µM (inactive)
- GI50 [47]: > 100 µM (inactive)
- GI50 [48]: 17.6 µM (inactive)
- GI50 [58]: 78.3 µM (inactive)
- GI50 [49]: 61.5 µM (inactive)
- GI50 [50]: 42.6 µM (inactive)
- GI50 [51]: > 100 µM (inactive)
- GI50 [52]: > 100 µM (inactive)
- GI50 [53]: 57.9 µM (inactive)
- GI50 [54]: 37.3 µM (inactive)
- GI50 [55]: > 100 µM (inactive)
- GI50 [56]: 16.9 µM (inactive)
- GI50 [57]: 85.9 µM (inactive)
